In patent publication US20250032651A1, “[177LU] LUTETIUM-PSMA I&T COMPOSITION AND DOSIMETRY, KIT, METHOD OF MAKING, AND METHOD OF USING THEREOF” (Curium US LLC, priority 2022, published 2025):

Assay: Cycle 3 dosimetry (TACs of cycle 1 scaled to cycle 3 time points)
Type: in vivo, human
Conditions: for Absorbed Dose in Cycle 3, Mean / Absorbed Dose in Cycle 3, max / Absorbed Dose in Cycle 3, min: N = 16
Protocol: (§1) To evaluate potential changes in the tracer's kinetics and uptake after multiple treatment cycles, 16 of the 27 patients included in the dosimetry sub study, were imaged at both cycle 1 and cycle 3. Among these, at cycle 3, three patients were imaged at all 4 timepoints and the other 13 were imaged at one or two timepoints only (24 h, 48 h or both 24 h and 48 h) (Table 2). For these 13 patients, the TACs obtained at cycle 1 were used for each source organ and scaled to the normalized activity value(s) measured at Cycle 3. For patients imaged at two timepoints, the TACs were preferably scaled using the average scaling factor between the two timepoints.
A subgroup of 16 out of the 27 patients underwent and additional dosimetry assessment at Cycle 3. Among these, three patients had dosimetry performed based on images taken at 4 timepoints, while the remaining patients had dosimetry performed at 1 or 2 imaging timepoints only.
as §1, with “7 in Appendix 1).” for “2).”

[1] = Lacrimal Glands (OLINDA sphere model)
[2] = Lacrimal Glands, OLINDA sphere model

## O=C([O-])CC[C@H](NC(=O)N[C@@H](CCCCNC(=O)CCCCCCC(=O)NCCCC[C@@H](NC(=O)[C@@H](Cc1ccccc1)NC(=O)[C@@H](Cc1ccc(O)c(I)c1)NC(=O)CC[C@H](C(=O)[O-])N1CCN(CC(=O)[O-])CCN(CC(=O)[O-])CCN(CC(=O)[O-])CC1)C(=O)[O-])C(=O)[O-])C(=O)[O-].[177Lu+3].[H+].[H+].[H+].[H+].[H+] [^177Lu-PSMA I&T, (3S,7S,26R,29R,32R,37R)-29-benzyl-32-(4-hydroxy-3-iodobenzyl)-5,13,20,28,31,34-hexaoxo-37-(4,7,10-tris(carboxymethyl)-1,4,7,10-tetraazacyclododecan-1-yl)-4,6,12,21,27,30,33-heptaazaheptatriacontane-1,3,7,26,37-pentacarboxylic acid; lutetium-177 (III)]
Adrenals
  Absorbed Dose in Cycle 3, Mean: 0.02 Gy/GBq
  Absorbed Dose in Cycle 3, max: 0.03 Gy/GBq
  Absorbed Dose in Cycle 3, min: 0.01 Gy/GBq
Brain
  Absorbed Dose in Cycle 3, Mean: 0.01 Gy/GBq
  Absorbed Dose in Cycle 3, max: 0.02 Gy/GBq
  Absorbed Dose in Cycle 3, min: 0.00 Gy/GBq
Cycle 3, 16 patients imaged at cycle 1 and 3
  absorbed radiation dose, kidneys (mean ± SD): 0.49±0.19 Gy/GBq
Esophagus
  Absorbed Dose in Cycle 3, Mean: 0.01 Gy/GBq
  Absorbed Dose in Cycle 3, max: 0.02 Gy/GBq
  Absorbed Dose in Cycle 3, min: 0.00 Gy/GBq
Eyes
  Absorbed Dose in Cycle 3, Mean: 0.01 Gy/GBq
  Absorbed Dose in Cycle 3, max: 0.02 Gy/GBq
  Absorbed Dose in Cycle 3, min: 0.00 Gy/GBq
Gallbladder wall
  Absorbed Dose in Cycle 3, Mean: 0.01 Gy/GBq
  Absorbed Dose in Cycle 3, max: 0.02 Gy/GBq
  Absorbed Dose in Cycle 3, min: 0.00 Gy/GBq
Heart wall
  Absorbed Dose in Cycle 3, Mean: 0.01 Gy/GBq
  Absorbed Dose in Cycle 3, max: 0.02 Gy/GBq
  Absorbed Dose in Cycle 3, min: 0.00 Gy/GBq
Kidneys
  Absorbed Dose in Cycle 3, Mean: 0.49 Gy/GBq
  Absorbed Dose in Cycle 3, max: 0.85 Gy/GBq
  Absorbed Dose in Cycle 3, min: 0.19 Gy/GBq
[1]
  Absorbed Dose in Cycle 3, Mean: 0.29 Gy/GBq
  Absorbed Dose in Cycle 3, max: 0.73 Gy/GBq
  Absorbed Dose in Cycle 3, min: 0.10 Gy/GBq
[2]
  Absorbed Dose in Cycle 3, Mean: 0.29 Gy/GBq
  Absorbed Dose in Cycle 3, max: 0.73 Gy/GBq
  Absorbed Dose in Cycle 3, min: 0.10 Gy/GBq
Left colon
  Absorbed Dose in Cycle 3, Mean: 0.41 Gy/GBq
  Absorbed Dose in Cycle 3, max: 0.94 Gy/GBq
  Absorbed Dose in Cycle 3, min: 0.07 Gy/GBq
Liver
  Absorbed Dose in Cycle 3, Mean: 0.06 Gy/GBq
  Absorbed Dose in Cycle 3, max: 0.15 Gy/GBq
  Absorbed Dose in Cycle 3, min: 0.00 Gy/GBq
Lungs
  Absorbed Dose in Cycle 3, Mean: 0.01 Gy/GBq
  Absorbed Dose in Cycle 3, max: 0.02 Gy/GBq
  Absorbed Dose in Cycle 3, min: 0.00 Gy/GBq
Osteogenic cells
  Absorbed Dose in Cycle 3, Mean: 0.02 Gy/GBq
  Absorbed Dose in Cycle 3, max: 0.09 Gy/GBq
  Absorbed Dose in Cycle 3, min: 0.00 Gy/GBq
Pancreas
  Absorbed Dose in Cycle 3, Mean: 0.01 Gy/GBq
  Absorbed Dose in Cycle 3, max: 0.02 Gy/GBq
  Absorbed Dose in Cycle 3, min: 0.00 Gy/GBq
Prostate
  Absorbed Dose in Cycle 3, Mean: 0.01 Gy/GBq
  Absorbed Dose in Cycle 3, max: 0.02 Gy/GBq
  Absorbed Dose in Cycle 3, min: 0.01 Gy/GBq
Rectum
  Absorbed Dose in Cycle 3, Mean: 0.39 Gy/GBq
  Absorbed Dose in Cycle 3, max: 0.90 Gy/GBq
  Absorbed Dose in Cycle 3, min: 0.06 Gy/GBq
Red Marrow
  Absorbed Dose in Cycle 3, Mean: 0.03 Gy/GBq
  Absorbed Dose in Cycle 3, max: 0.17 Gy/GBq
  Absorbed Dose in Cycle 3, min: 0.00 Gy/GBq
Right Colon
  Absorbed Dose in Cycle 3, Mean: 0.22 Gy/GBq
  Absorbed Dose in Cycle 3, max: 0.51 Gy/GBq
  Absorbed Dose in Cycle 3, min: 0.04 Gy/GBq
Salivary Glands
  Absorbed Dose in Cycle 3, Mean: 0.20 Gy/GBq
  Absorbed Dose in Cycle 3, max: 0.69 Gy/GBq
  Absorbed Dose in Cycle 3, min: 0.04 Gy/GBq
Small intestine
  Absorbed Dose in Cycle 3, Mean: 0.04 Gy/GBq
  Absorbed Dose in Cycle 3, max: 0.10 Gy/GBq
  Absorbed Dose in Cycle 3, min: 0.01 Gy/GBq
Spleen
  Absorbed Dose in Cycle 3, Mean: 0.03 Gy/GBq
  Absorbed Dose in Cycle 3, max: 0.12 Gy/GBq
  Absorbed Dose in Cycle 3, min: 0.01 Gy/GBq
Stomach Wall
  Absorbed Dose in Cycle 3, Mean: 0.01 Gy/GBq
  Absorbed Dose in Cycle 3, max: 0.02 Gy/GBq
  Absorbed Dose in Cycle 3, min: 0.00 Gy/GBq
Testes
  Absorbed Dose in Cycle 3, Mean: 0.01 Gy/GBq
  Absorbed Dose in Cycle 3, max: 0.02 Gy/GBq
  Absorbed Dose in Cycle 3, min: 0.00 Gy/GBq
Thymus
  Absorbed Dose in Cycle 3, Mean: 0.01 Gy/GBq
  Absorbed Dose in Cycle 3, max: 0.02 Gy/GBq
  Absorbed Dose in Cycle 3, min: 0.00 Gy/GBq
Thyroid
  Absorbed Dose in Cycle 3, Mean: 0.01 Gy/GBq
  Absorbed Dose in Cycle 3, max: 0.02 Gy/GBq
  Absorbed Dose in Cycle 3, min: 0.00 Gy/GBq
Total Body
  Absorbed Dose in Cycle 3, Mean: 0.02 Gy/GBq
  Absorbed Dose in Cycle 3, max: 0.03 Gy/GBq
  Absorbed Dose in Cycle 3, min: 0.01 Gy/GBq
Urinary Bladder wall
  Absorbed Dose in Cycle 3, Mean: 0.45 Gy/GBq
  Absorbed Dose in Cycle 3, max: 0.70 Gy/GBq
  Absorbed Dose in Cycle 3, min: 0.36 Gy/GBq
